Experimental data published in ChEMBL document CHEMBL3112450, “Synthesis and in vitro antitumor evaluation of primary amine substituted quinazoline linked benzimidazole” (Bioorg Med Chem Lett, 2014).

Assays:
Assay type in all cases: functional
U-251 = experiment: Cytotoxicity against human U251 cells assessed as cell growth at 10^-7 M after 48 hrs by SRB assay; details: U-251, 48 h, read-out: Activity
SW-620 [1] = experiment: Cytotoxicity against human SW620 cells assessed as cell growth at 10^-4 M after 48 hrs by SRB assay; details: SW-620, 48 h, read-out: Activity
OVCAR-3 [2] = experiment: Cytotoxicity against human OVCAR3 cells assessed as cell growth at 10^-6 M after 48 hrs by SRB assay; details: OVCAR-3, 48 h, read-out: Activity
HL-60(TB) = experiment: Cytotoxicity against human HL-60(TB) cells assessed as cell growth at 10^-4 M after 48 hrs by SRB assay; details: HL-60, 48 h, read-out: Activity
NCI-H226 [3] = experiment: Cytotoxicity against human NCI-H226 cells assessed as cell growth at 10^-6 M after 48 hrs by SRB assay; details: NCI-H226, 48 h, read-out: Activity
[4] = Cytotoxicity against human NCI-ADR-RES cells assessed as cell growth at 10^-4 M after 48 hrs by SRB assay; details: read-out: Activity
SW-620 [5] = experiment: Cytotoxicity against human SW620 cells assessed as cell growth at 10^-8 M after 48 hrs by SRB assay; details: SW-620, 48 h, read-out: Activity
786-0 [6] = experiment: Cytotoxicity against human 786-0 cells assessed as cell growth at 10^-4 M after 48 hrs by SRB assay; details: 786-0, 48 h, read-out: Activity
SR = experiment: Cytotoxicity against human SR cells assessed as cell growth at 10^-8 M after 48 hrs by SRB assay; details: read-out: Activity
HCC 2998 = experiment: Cytotoxicity against human HCC2998 cells assessed as cell growth at 10^-7 M after 48 hrs by SRB assay; details: HCC 2998, 48 h, read-out: Activity
SF-539 [7] = experiment: Cytotoxicity against human SF539 cells assessed as cell growth at 10^-6 M after 48 hrs by SRB assay; details: SF-539, 48 h, read-out: Activity
MCF7 = experiment: Cytotoxicity against human MCF7 cells assessed as cell growth at 10^-6 M after 48 hrs by SRB assay; details: MCF7, 48 h, read-out: Activity
LOX IMVI = experiment: Cytotoxicity against human LOXIMVI cells after 48 hrs by SRB assay
[8] = Cytotoxicity against human Hs578T cells assessed as cell growth at 10^-8 M after 48 hrs by SRB assay; details: Hs-578T, read-out: Activity
A498 = experiment: Cytotoxicity against human A498 cells assessed as cell growth at 10^-6 M after 48 hrs by SRB assay; details: A498, 48 h, read-out: Activity
OVCAR-3 [9] = experiment: Cytotoxicity against human OVCAR3 cells assessed as cell growth at 10^-7 M after 48 hrs by SRB assay; details: OVCAR-3, 48 h, read-out: Activity
RXF 393 = experiment: Cytotoxicity against human RXF393 cells after 48 hrs by SRB assay; details: RXF 393, 48 h
NCI-H23 = experiment: Cytotoxicity against human NCI-H23 cells assessed as cell growth at 10^-6 M after 48 hrs by SRB assay; details: NCI-H23, 48 h, read-out: Activity
SN12C = experiment: Cytotoxicity against human SN12C cells assessed as cell growth at 10^-8 M after 48 hrs by SRB assay; details: read-out: Activity
[10] = Cytotoxicity against human Hs578T cells after 48 hrs by SRB assay; details: Hs-578T
UACC-62 = experiment: Cytotoxicity against human UACC62 cells after 48 hrs by SRB assay; details: UACC-62, 48 h
[11] = Cytotoxicity against human OVCAR4 cells after 48 hrs by SRB assay; details: OVCAR-4, 48 h
T47D [12] = experiment: Cytotoxicity against human T47D cells assessed as cell growth at 10^-7 M after 48 hrs by SRB assay; details: read-out: Activity
SF-295 = experiment: Cytotoxicity against human SF295 cells assessed as cell growth at 10^-4 M after 48 hrs by SRB assay; details: SF-295, 48 h, read-out: Activity
SF-539 [13] = experiment: Cytotoxicity against human SF539 cells after 48 hrs by SRB assay; details: SF-539, 48 h
MOLT-4 = experiment: Cytotoxicity against human MOLT4 cells assessed as cell growth at 10^-4 M after 48 hrs by SRB assay; details: MOLT-4, 48 h, read-out: Activity
NCI-H226 [14] = experiment: Cytotoxicity against human NCI-H226 cells assessed as cell growth at 10^-8 M after 48 hrs by SRB assay; details: NCI-H226, 48 h, read-out: Activity
T47D [15] = experiment: Cytotoxicity against human T47D cells assessed as cell growth at 10^-4 M after 48 hrs by SRB assay; details: read-out: Activity
HT-29 = experiment: Cytotoxicity against human HT-29 cells after 48 hrs by SRB assay; details: HT-29, 48 h
[16] = Cytotoxicity against human Hs578T cells assessed as cell growth at 10^-7 M after 48 hrs by SRB assay; details: Hs-578T, read-out: Activity
[17] = Cytotoxicity against human OVCAR5 cells assessed as cell growth at 10^-6 M after 48 hrs by SRB assay; details: OVCAR-5, 48 h, read-out: Activity
NCI-H522 = experiment: Cytotoxicity against human NCI-H522 cells assessed as cell growth at 10^-7 M after 48 hrs by SRB assay; details: NCI-H522, 48 h, read-out: Activity
COLO 205 = experiment: Cytotoxicity against human COLO205 cells after 48 hrs by SRB assay; details: COLO 205, 48 h
KM12 = experiment: Cytotoxicity against human KM12 cells assessed as cell growth at 10^-7 M after 48 hrs by SRB assay; details: KM12, 48 h, read-out: Activity
SNB-19 = experiment: Cytotoxicity against human SNB19 cells assessed as cell growth at 10^-4 M after 48 hrs by SRB assay; details: SNB-19, 48 h, read-out: Activity
IGROV-1 = experiment: Cytotoxicity against human IGROV1 cells assessed as cell growth at 10^-4 M after 48 hrs by SRB assay; details: IGROV-1, 48 h, read-out: Activity
MDA-MB-231 = experiment: Cytotoxicity against human MDA-MB-231 cells assessed as cell growth at 10^-6 M after 48 hrs by SRB assay; details: MDA-MB-231, 48 h, read-out: Activity
SK-MEL-28 = experiment: Cytotoxicity against human SK-MEL-28 cells assessed as cell growth at 10^-7 M after 48 hrs by SRB assay; details: SK-MEL-28, 48 h, read-out: Activity
786-0 [18] = experiment: Cytotoxicity against human 786-0 cells assessed as cell growth at 10^-8 M after 48 hrs by SRB assay; details: 786-0, 48 h, read-out: Activity
[19] = read-out: LC50 (the source's name)

## C=CCn1c(C)nc2ccc(Nc3nc(Nc4ccc(F)cc4)nc4ccccc34)cc21
U-251
  growth at 0.1 µM: 92%
SW-620 [1]
  growth at 100 µM: -48%
OVCAR-3 [2]
  growth at 1 µM: 97%
HL-60(TB)
  growth at 100 µM: -45%
NCI-H226 [3]
  growth at 1 µM: 87%
[4]
  growth at 100 µM: -15%
SW-620 [5]
  growth at 0.01 µM: 99%
786-0 [6]
  growth at 100 µM: -71%
SR
  growth at 0.01 µM: 98%
HCC 2998
  growth at 0.1 µM: 97%
SF-539 [7]
  growth at 1 µM: 89%
MCF7
  growth at 1 µM: 73%
LOX IMVI
  GI50: 4.36 µM
  LC50: > 100 µM
  TGI: 23 µM
[8]
  growth at 0.01 µM: 92%
A498
  growth at 1 µM: 65%
OVCAR-3 [9]
  growth at 0.1 µM: 98%
RXF 393
  GI50: 1.23 µM
  TGI: 2.57 µM
RXF 393; [19]
  CC50: 5.38 µM
NCI-H23
  growth at 1 µM: 88%
SN12C
  growth at 0.01 µM: 93%
[10]
  GI50: 9.83 µM
  LC50: > 100 µM
  TGI: 56.7 µM
UACC-62
  GI50: 1.8 µM
  TGI: 3.7 µM
UACC-62; [19]
  CC50: 7.59 µM
[11]
  GI50: 2.06 µM
  LC50: > 100 µM
  TGI: 5.81 µM
T47D [12]
  growth at 0.1 µM: 85%
SF-295
  growth at 100 µM: -87%
SF-539 [13]
  GI50: 12.3 µM
  LC50 (concentration giving 50% net cell kill): 53.9 µM
  TGI: 25.7 µM
MOLT-4
  growth at 100 µM: -48%
NCI-H226 [14]
  growth at 0.01 µM: 92%
T47D [15]
  growth at 100 µM: -13%
HT-29
  GI50: 3 µM
  LC50 (concentration killing 50% of cells): > 100 µM
  TGI: 13.3 µM
[16]
  growth at 0.1 µM: 99%
[17]
  growth at 1 µM: 92%
NCI-H522
  growth at 0.1 µM: 84%
COLO 205
  GI50: 1.75 µM
  TGI: 3.25 µM
KM12
  growth at 0.1 µM: 94%
SNB-19
  growth at 100 µM: -80%
IGROV-1
  growth at 100 µM: -51%
MDA-MB-231
  growth at 1 µM: 85%
SK-MEL-28
  growth at 0.1 µM: 102%
786-0 [18]
  growth at 0.01 µM: 93%
